Test results as given in US20170008888A1 (KYORIN PHARMACEUTICAL CO., LTD., priority 2014, published 2017).

Assays:
ATAD2A = molecular target: T1, ATAD2A (Homo sapiens, UniProt Q6PL18); assay: Bromodomain binding assay: ATAD2A
T1 construct: T7 phage strains displaying bromodomains were grown in parallel; made in house; host or cells: E. coli host derived from BL21, infected with T7 phage
Description: (§1) T7 phage strains displaying bromodomains were grown in parallel in 24-well blocks in an E. coli host derived from the BL21 strain. E. coli were grown to log-phase and infected with T7 phage from a frozen stock (multiplicity of infection=0.4) and incubated with shaking at 32° C. until lysis (90-150 minutes). The lysates were centrifuged (5,000×g) and filtered (0.2 μm) to remove cell debris. […] The liganded beads were blocked with excess biotin and washed with blocking buffer (SeaBlock (Pierce), 1% BSA, 0.05 Tween 20, 1 mM DTT) to remove unbound ligand and to reduce non-specific phage binding. […] Test compounds (T62 and 46) were prepared as 1000× stocks in 100% DMSO and subsequently diluted 1:10 in monoethylene glycol (MEG) to create stocks at 100× the screening concentration (resulting stock solution is 10% DMSO/90% MEG). The compounds were then diluted directly into the assays such that the final concentration of DMSO and MEG were 0.1% and 0.9%, respectively. All reactions were performed in polystyrene 96-well plates in a final volume of 0.135 ml. […] The bromodomain concentration in the eluates was measured by qPCR. Compounds were assayed for binding activity against a panel of 40 bromodomain-containing proteins.

BRD3 = molecular target: T2, BRD3 (Homo sapiens, UniProt Q15059); assay: Bromodomain binding assay: BRD3
T2 construct: read out by qPCR of the phage DNA
T2 sequence (Q15059 whole entry): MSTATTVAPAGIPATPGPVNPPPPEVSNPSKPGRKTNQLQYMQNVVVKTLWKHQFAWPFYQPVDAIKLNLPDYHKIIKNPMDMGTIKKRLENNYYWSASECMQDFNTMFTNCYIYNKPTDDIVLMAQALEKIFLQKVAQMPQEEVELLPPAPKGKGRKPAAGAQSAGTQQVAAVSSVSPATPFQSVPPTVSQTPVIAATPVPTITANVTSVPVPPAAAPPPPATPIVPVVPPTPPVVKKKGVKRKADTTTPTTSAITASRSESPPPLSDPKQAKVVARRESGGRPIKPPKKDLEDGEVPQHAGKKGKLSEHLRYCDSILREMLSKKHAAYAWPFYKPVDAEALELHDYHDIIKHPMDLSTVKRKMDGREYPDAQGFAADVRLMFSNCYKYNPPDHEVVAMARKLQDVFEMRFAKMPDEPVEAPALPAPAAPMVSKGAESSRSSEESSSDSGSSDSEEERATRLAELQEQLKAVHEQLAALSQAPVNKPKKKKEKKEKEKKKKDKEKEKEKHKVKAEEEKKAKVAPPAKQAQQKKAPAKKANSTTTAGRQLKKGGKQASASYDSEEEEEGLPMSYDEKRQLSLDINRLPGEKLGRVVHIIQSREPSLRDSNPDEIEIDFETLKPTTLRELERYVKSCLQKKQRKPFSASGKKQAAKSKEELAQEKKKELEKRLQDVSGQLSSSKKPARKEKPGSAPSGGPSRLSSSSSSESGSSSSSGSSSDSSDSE
Description: as §1

BRD4 = molecular target: T3, BRD4 (Homo sapiens, UniProt O60885); assay: Bromodomain binding assay: BRD4
T3 construct: read out by qPCR of the phage DNA
Description: as §1

[1] = system: DNFB-induced ear inflammation mouse model; assay: DNFB-induced ear inflammation mouse model: cytokine concentrations in ear tissue; type: in vivo, mouse (Balb/c)
Description: In vivo T-cell mediated immune response was examined in a mouse model of CHS using the hapten dinitrofluorobenzene (DNFB) as the induction agent. […] On Days 0 and 1 (sensitization), 20 μL of 0.5% v/v DNFB in acetone:olive oil (4:1) was applied to each hindpaw of 8 week old male mice (Balb/c, Charles River Laboratories; 10 mice per group unless otherwise noted). On Day 5 (elicitation) 10 μL of 0.2% v/v DNFB in acetone: olive oil (4:1) was applied to the dorsal surface of the right ear of each animal; 10 μL of acetone: olive oil (4:1) was applied to the dorsal surface of the left ear as control. Treatments were administered by group as indicated in the table below; on days when DNFB was used, the QD and the morning dose of BID as appropriate were administered 30 minutes-1 hr. prior to DNFB application. […] Approximately 24 hours after elicitation (Day 6), a 7 mm tissue punch from the central portion of both ears was collected and wet weights measured. The primary functional assessment was the difference in wet weights of the right (DNFB) vs. left (vehicle) ears compared to the vehicle treatment (Vehicle1-S) as an indicator of inflammation (Table 17). Ear tissue punches were flash frozen, stored at −70° C. and analyzed for cytokines (see below).
Cytokine concentrations after DNFB induction and treatment were analyzed in the weighed and flash frozen tissues of the right (DNFB) and left (control) 7 mm ear punches. The ear tissues were stored at −70° C. until prepared for analysis as follows. Left or right ear tissues from the same treatment group were pooled and crushed with mortar and pestle under liquid nitrogen. Tissue representing 7-8 ear punches by weight was homogenized in Buffer A (50 mM HEPES pH 7.4, 100 mM NaCl) containing 1 tablet EDTA-free Protease Inhibitor (Thermo Fisher Scientific, Rockford, Ill.) per 10 mL, 1× Phosphatase Inhibitor Cocktail II (AG Scientific, San Diego, Calif.), and 1 mM PMSF (Sigma, St. Louis, Mo.). Homogenization was performed in Lysing Matrix D tubes (MP Biomedicals, Solon, Ohio), using the FastPrep-24 instrument (MP Biomedicals) at a speed setting of 6 for 4 cycles of 30 seconds, with cooling on ice in between cycles. The tubes were then centrifuged at 1,000×g for 10 min at 4° C. Supernatant was collected and briefly sonicated using the Microson probe sonicator at setting 3 (Misonix, Farmingdale, N.Y.) before centrifuging again at 10,000×g for 10 min at 4° C. The supernatant was ultracentrifuged at 100,000×g for 1 h at 4° C. in the Optima Max-E (Beckman Coulter, Indianapolis, Ind.) to separate soluble and membrane protein fractions. The soluble (supernatant) fraction was collected and protein concentrations determined using the Dc protein kit (Bio-Rad, Hercules, Calif.). Soluble ear proteins were analyzed in triplicate for cytokine response at a final protein concentration of 4 mg/ml using the Bio-Plex Pro Mouse Cytokine 23-Plex panel (Bio-Rad) as per manufacturer's protocols. Magnetic beads were read on the Bio-Plex MAGPIX multiplex reader instrument using the accompanying xPONENT 4.2 acquisition software (Bio-Rad Laboratories, Hercules, Calif.). Data were analyzed via the Bio-Plex Manager software v6.1 (Bio-Rad Laboratories). Response was calculated as a percentage of the cytokine concentrations measured in the right (DNFB) ears of vehicle 1 dosed (S regimen, i.e. dosed Day 0-5) mice (Table 18).

T1 sequence (Q6PL18 980-1092 limits assumed): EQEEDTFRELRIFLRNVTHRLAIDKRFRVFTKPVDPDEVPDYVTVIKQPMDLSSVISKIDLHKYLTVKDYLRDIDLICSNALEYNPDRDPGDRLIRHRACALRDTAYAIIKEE

CCOc1cc(C(=O)N[C@H]2CC[C@H](O)CC2)ccc1Nc1cc2c(cn1)N(C)C(=O)c1ccccc1N2C [Compound T62]
Kd (ATAD2A): > 20000 nM
Kd (BRD3): 110 nM
Kd (BRD4): 97 nM

CCOc1cc(C(=O)N2CCCN(C)CC2)ccc1Nc1cc2c(cn1)N(C)C(=O)c1ccccc1N2C [Compound 8]
G-CSF: Mean % Cytokine Concentration in DNFB Treated Right Ears versus Vehicle 1-Dosed (S) Mice ([1]; 25 mg/kg, regimen E): 68%
GM-CSF: Mean % Cytokine Concentration in DNFB Treated Right Ears versus Vehicle 1-Dosed (S) Mice ([1]; 25 mg/kg, regimen E): 40%
IFN-γ: Mean % Cytokine Concentration in DNFB Treated Right Ears versus Vehicle 1-Dosed (S) Mice ([1]; 25 mg/kg, regimen E): 52%
IL-1α: Mean % Cytokine Concentration in DNFB Treated Right Ears versus Vehicle 1-Dosed (S) Mice ([1]; 25 mg/kg, regimen E): 88%
IL-1β: Mean % Cytokine Concentration in DNFB Treated Right Ears versus Vehicle 1-Dosed (S) Mice ([1]; 25 mg/kg, regimen E): 56%
IL-3: Mean % Cytokine Concentration in DNFB Treated Right Ears versus Vehicle 1-Dosed (S) Mice ([1]; 25 mg/kg, regimen E): 67%
IL-5: Mean % Cytokine Concentration in DNFB Treated Right Ears versus Vehicle 1-Dosed (S) Mice ([1]; 25 mg/kg, regimen E): 37%
IL-6: Mean % Cytokine Concentration in DNFB Treated Right Ears versus Vehicle 1-Dosed (S) Mice ([1]; 25 mg/kg, regimen E): 58%
IL-12 (p40): Mean % Cytokine Concentration in DNFB Treated Right Ears versus Vehicle 1-Dosed (S) Mice ([1]; 25 mg/kg, regimen E): 79%
IL-13: Mean % Cytokine Concentration in DNFB Treated Right Ears versus Vehicle 1-Dosed (S) Mice ([1]; 25 mg/kg, regimen E): 74%
IL-17A: Mean % Cytokine Concentration in DNFB Treated Right Ears versus Vehicle 1-Dosed (S) Mice ([1]; 25 mg/kg, regimen E): 69%
KC: Mean % Cytokine Concentration in DNFB Treated Right Ears versus Vehicle 1-Dosed (S) Mice ([1]; 25 mg/kg, regimen E): 39%
MCP-1: Mean % Cytokine Concentration in DNFB Treated Right Ears versus Vehicle 1-Dosed (S) Mice ([1]; 25 mg/kg, regimen E): 44%
MIP-1α: Mean % Cytokine Concentration in DNFB Treated Right Ears versus Vehicle 1-Dosed (S) Mice ([1]; 25 mg/kg, regimen E): 62%
MIP-1β: Mean % Cytokine Concentration in DNFB Treated Right Ears versus Vehicle 1-Dosed (S) Mice ([1]; 25 mg/kg, regimen E): 60%
RANTES: Mean % Cytokine Concentration in DNFB Treated Right Ears versus Vehicle 1-Dosed (S) Mice ([1]; 25 mg/kg, regimen E): 66%
TNF-α: Mean % Cytokine Concentration in DNFB Treated Right Ears versus Vehicle 1-Dosed (S) Mice ([1]; 25 mg/kg, regimen E): 53%
G-CSF: Mean % Cytokine Concentration in DNFB Treated Right Ears versus Vehicle 1-Dosed (S) Mice ([1]; 60 mg/kg, regimen E): 50%
GM-CSF: Mean % Cytokine Concentration in DNFB Treated Right Ears versus Vehicle 1-Dosed (S) Mice ([1]; 60 mg/kg, regimen E): 48%
IFN-γ: Mean % Cytokine Concentration in DNFB Treated Right Ears versus Vehicle 1-Dosed (S) Mice ([1]; 60 mg/kg, regimen E): 58%
IL-1α: Mean % Cytokine Concentration in DNFB Treated Right Ears versus Vehicle 1-Dosed (S) Mice ([1]; 60 mg/kg, regimen E): 188%
IL-1β: Mean % Cytokine Concentration in DNFB Treated Right Ears versus Vehicle 1-Dosed (S) Mice ([1]; 60 mg/kg, regimen E): 62%
IL-3: Mean % Cytokine Concentration in DNFB Treated Right Ears versus Vehicle 1-Dosed (S) Mice ([1]; 60 mg/kg, regimen E): 77%
IL-5: Mean % Cytokine Concentration in DNFB Treated Right Ears versus Vehicle 1-Dosed (S) Mice ([1]; 60 mg/kg, regimen E): 57%
IL-6: Mean % Cytokine Concentration in DNFB Treated Right Ears versus Vehicle 1-Dosed (S) Mice ([1]; 60 mg/kg, regimen E): 61%
IL-12 (p40): Mean % Cytokine Concentration in DNFB Treated Right Ears versus Vehicle 1-Dosed (S) Mice ([1]; 60 mg/kg, regimen E): 88%
IL-13: Mean % Cytokine Concentration in DNFB Treated Right Ears versus Vehicle 1-Dosed (S) Mice ([1]; 60 mg/kg, regimen E): 85%
IL-17A: Mean % Cytokine Concentration in DNFB Treated Right Ears versus Vehicle 1-Dosed (S) Mice ([1]; 60 mg/kg, regimen E): 68%
KC: Mean % Cytokine Concentration in DNFB Treated Right Ears versus Vehicle 1-Dosed (S) Mice ([1]; 60 mg/kg, regimen E): 29%
MCP-1: Mean % Cytokine Concentration in DNFB Treated Right Ears versus Vehicle 1-Dosed (S) Mice ([1]; 60 mg/kg, regimen E): 47%
MIP-1α: Mean % Cytokine Concentration in DNFB Treated Right Ears versus Vehicle 1-Dosed (S) Mice ([1]; 60 mg/kg, regimen E): 62%
MIP-1β: Mean % Cytokine Concentration in DNFB Treated Right Ears versus Vehicle 1-Dosed (S) Mice ([1]; 60 mg/kg, regimen E): 44%
RANTES: Mean % Cytokine Concentration in DNFB Treated Right Ears versus Vehicle 1-Dosed (S) Mice ([1]; 60 mg/kg, regimen E): 53%
TNF-α: Mean % Cytokine Concentration in DNFB Treated Right Ears versus Vehicle 1-Dosed (S) Mice ([1]; 60 mg/kg, regimen E): 81%
G-CSF: Mean % Cytokine Concentration in DNFB Treated Right Ears versus Vehicle 1-Dosed (S) Mice ([1]; 60 mg/kg, regimen S): 36%
GM-CSF: Mean % Cytokine Concentration in DNFB Treated Right Ears versus Vehicle 1-Dosed (S) Mice ([1]; 60 mg/kg, regimen S): 52%
IFN-γ: Mean % Cytokine Concentration in DNFB Treated Right Ears versus Vehicle 1-Dosed (S) Mice ([1]; 60 mg/kg, regimen S): 46%
IL-1α: Mean % Cytokine Concentration in DNFB Treated Right Ears versus Vehicle 1-Dosed (S) Mice ([1]; 60 mg/kg, regimen S): 136%
IL-1β: Mean % Cytokine Concentration in DNFB Treated Right Ears versus Vehicle 1-Dosed (S) Mice ([1]; 60 mg/kg, regimen S): 52%
IL-3: Mean % Cytokine Concentration in DNFB Treated Right Ears versus Vehicle 1-Dosed (S) Mice ([1]; 60 mg/kg, regimen S): 61%
IL-5: Mean % Cytokine Concentration in DNFB Treated Right Ears versus Vehicle 1-Dosed (S) Mice ([1]; 60 mg/kg, regimen S): 37%
IL-6: Mean % Cytokine Concentration in DNFB Treated Right Ears versus Vehicle 1-Dosed (S) Mice ([1]; 60 mg/kg, regimen S): 32%
IL-12 (p40): Mean % Cytokine Concentration in DNFB Treated Right Ears versus Vehicle 1-Dosed (S) Mice ([1]; 60 mg/kg, regimen S): 73%
IL-13: Mean % Cytokine Concentration in DNFB Treated Right Ears versus Vehicle 1-Dosed (S) Mice ([1]; 60 mg/kg, regimen S): 75%
IL-17A: Mean % Cytokine Concentration in DNFB Treated Right Ears versus Vehicle 1-Dosed (S) Mice ([1]; 60 mg/kg, regimen S): 38%
KC: Mean % Cytokine Concentration in DNFB Treated Right Ears versus Vehicle 1-Dosed (S) Mice ([1]; 60 mg/kg, regimen S): 35%
MCP-1: Mean % Cytokine Concentration in DNFB Treated Right Ears versus Vehicle 1-Dosed (S) Mice ([1]; 60 mg/kg, regimen S): 43%
MIP-1α: Mean % Cytokine Concentration in DNFB Treated Right Ears versus Vehicle 1-Dosed (S) Mice ([1]; 60 mg/kg, regimen S): 57%
MIP-1β: Mean % Cytokine Concentration in DNFB Treated Right Ears versus Vehicle 1-Dosed (S) Mice ([1]; 60 mg/kg, regimen S): 52%
RANTES: Mean % Cytokine Concentration in DNFB Treated Right Ears versus Vehicle 1-Dosed (S) Mice ([1]; 60 mg/kg, regimen S): 51%
TNF-α: Mean % Cytokine Concentration in DNFB Treated Right Ears versus Vehicle 1-Dosed (S) Mice ([1]; 60 mg/kg, regimen S): 65%
